What all share (format): functional, cell-based
A short description of test [1]: Cytotoxicity against vincristine-resistant human KB/VJ300 cells after 72 hrs by MTT assay. As to conditions: KB/VJ300, 72 h.
The nature of test [2]: Cytotoxicity against vincristine-resistant human KB/VJ300 cells in presence of 0.12 uM vincristine after 72 hrs by MTT assay. The following applies: KB/VJ300, 72 h. (Tetrazolium assays rely on reduction of a dye to a coloured formazan, in cell work by metabolically active cells.)
Test [3] is described as follows: Cytotoxicity against vincristine-sensitive human KB cells after 72 hrs by MTT assay.

pIC50: −log10 of the molar value.

In the case of `C/C=C1/CN(C)[C@H]2Cc3c([nH]c4ccccc34)[C@@H](c3ccc4c5c([nH]c4c3)[C@@H]3C[C@H]4C[C@H]([C@@H](C)O)[C@@H]3N(CC5)C4)C[C@@H]1[C@@H]2C(=O)OC`, the pIC50 in test [1] was 5.57; in test [2], 5.89; in test [3] it was 5.48.

For `C/C=C1/CN(C)[C@H]2Cc3c([nH]c4ccccc34)[C@@H](c3ccc4c5c([nH]c4c3)[C@@H]3C[C@H]4C[C@H]([C@H](C)O)[C@@H]3N(CC5)C4)C[C@@H]1[C@@H]2C(=O)OC`, the pIC50 in test [1] is 5.39; in test [2], 5.74; in test [3], 5.34.

As for `C/C=C1/CN(C)[C@H]2Cc3c([nH]c4ccccc34)[C@@H](c3ccc4c5c([nH]c4c3)[C@@H]3C[C@H]4C[C@H](CC)[C@@H]3N(CC5)C4)C[C@@H]1[C@@H]2C(=O)OC`, the values for the pIC50 in test [1], in test [2] and in test [3] were 5.85, 6.05 and 5.92, respectively.

For orientation: pIC50 means −log10 of the IC50, conventionally taken in molar units.

Source of the values: ChEMBL document CHEMBL3853274, “Ibogan, Aspidosperman, Vincamine, and Bisindole Alkaloids from a Malayan Tabernaemontana corymbosa: Iboga Alkaloids with C-20α Substitution” (J Nat Prod, 2016).
